Results: US7956074B2, “Aryl-isoxazolo-4-yl-oxadiazole derivatives” (Hoffman-La Roche Inc., priority 2005, dated 2011)

Target: T1, GABA A receptor α5β3γ2 (Homo sapiens, UniProt P18507+P31644)
T1 construct: expressed in transfected cells; host or cells: HEK293 cells, transiently transfected; membranes prepared
Assay: [3H]flumazenil competition binding, human GABA A α5β3γ2
Conditions: competition for [3H]flumazenil (0.5 nM) binding, HEK293 cells expressing human (transiently transfected) α5β3γ2; means of two determinations; read-out: Ki[nM] hα5
Method: Membrane Preparation and Binding Assay
The affinity of compounds at GABA A receptor subtypes was measured by competition for [3H]flumazenil (85 Ci/mmol; Roche) binding to HEK293 cells expressing rat (stably transfected) or human (transiently transfected) receptors of composition
Cell pellets were suspended in Krebs-tris buffer (4.8 mM KCl, 1.2 mM CaCl2, 1.2 mM MgCl2, 120 mM NaCl, 15 mM Tris; pH 7.5; binding assay buffer), homogenized by polytron for ca. 20 sec on ice and centrifuged for 60 min at 4° C. (50000 g; Sorvall, rotor: SM24=20000 rpm). The cell pellets were resuspended in Krebs-tris buffer and homogenized by polytron for ca. 15 sec on ice. Protein was measured (Bradford method, Bio-Rad) and aliquots of 1 mL were prepared and stored at −80° C.
Assays were incubated to equilibrium for 1 hour at 4° C. and harvested onto GF/C uni-filters (Packard) by filtration using a Packard harvester and washing with ice-cold wash buffer (50 mM Tris; pH 7.5). After drying, filter-retained radioactivity was detected by liquid scintillation counting. Ki values were calculated using Excel-Fit (Microsoft) and are the means of two determinations.

Compound	Ki
COc1cc(N2CCOCC2)ccc1-c1nnc(-c2c(-c3ccccc3)noc2C#N)o1 [Example 115, 4-[5-(2-Methoxy-4-morpholin-4-yl-phenyl)-[1,3,4]oxadiazol-2-yl]-3-phenyl-isoxazole-5-carbonitrile]	131 nM
Cc1onc(-c2ccccc2)c1-c1nnc(-c2cccc3cccnc23)o1 [Example 7, 8-[5-(5-Methyl-3-phenyl-isoxazol-4-yl)-[1,3,4]oxadiazol-2-yl]-quinoline]	40.6 nM
COc1cc(F)ccc1-c1nnc(-c2c(-c3ccccc3)noc2C)o1 [Example 24, 2-(4-Fluoro-2-methoxy-phenyl)-5-(5-methyl-3-phenyl-isoxazol-4-yl)-[1,3,4]oxadiazole]	39.6 nM
Cc1onc(-c2ccccc2)c1-c1nnc(-c2ccnc3ccccc23)o1 [Example 44, 4-[5-(5-Methyl-3-phenyl-isoxazol-4-yl)-[1,3,4]oxadiazol-2-yl]-quinoline]	88.9 nM
COc1cc(NS(=O)(=O)c2cccs2)ccc1-c1nnc(-c2c(-c3ccccc3)noc2C)o1 [Example 62, Thiophene-2-sulfonic acid {3-methoxy-4-[5-(5-methyl-3-phenyl-isoxazol-4-yl)-[1,3,4]oxadiazol-2-yl]-phenyl}-amide]	42.8 nM
Cc1onc(-c2ccccc2)c1-c1nnc(-c2ccc(-n3ccnc3C)cc2)o1 [Example 59, 2-[4-(2-Methyl-imidazol-1-yl)-phenyl]-5-(5-methyl-3-phenyl-isoxazol-4-yl)-[1,3,4]oxadiazole]	30.7 nM
COc1cc(N2CCOCC2)ccc1-c1nnc(-c2c(-c3cccnc3)noc2C)o1 [Example 102, 4-{3-Methoxy-4-[5-(5-methyl-3-pyridin-3-yl-isoxazol-4-yl)-[1,3,4]oxadiazol-2-yl]-phenyl}-morpholine]	146 nM
CCOc1ccccc1-c1nnc(-c2c(-c3ccccc3)noc2C)o1 [Example 8, 2-(2-Ethoxy-phenyl)-5-(5-methyl-3-phenyl-isoxazol-4-yl)-[1,3,4]oxadiazole]	58.2 nM
Cc1onc(-c2ccccc2)c1-c1nnc(-c2cc(F)c(N3CCSCC3)cc2F)o1 [Example 119, 4-{2,5-Difluoro-4-[5-(5-methyl-3-phenyl-isoxazol-4-yl)-[1,3,4]oxadiazol-2-yl]-phenyl}-thiomorpholine]	24.3 nM
COc1cc(C)ccc1-c1nnc(-c2c(-c3ccccc3)noc2C)o1 [Example 14, 2-(2-Methoxy-4-methyl-phenyl)-5-(5-methyl-3-phenyl-isoxazol-4-yl)-[1,3,4]oxadiazole]	31 nM
COc1ccc(-c2nnc(-c3c(-c4ccccc4)noc3C)o2)cc1 [Example 5, 2-(4-Methoxy-phenyl)-5-(5-methyl-3-phenyl-isoxazol-4-yl)-[1,3,4]oxadiazole]	31.1 nM
COc1cc(N2CCOCC2)ccc1-c1nnc(-c2conc2-c2ccc(F)cc2)o1 [Example 98, 4-(4-{5-[3-(4-Fluoro-phenyl)-isoxazol-4-yl]-[1,3,4]oxadiazol-2-yl}-3-methoxy-phenyl)-morpholine]	49 nM
COc1ccc(-c2nnc(-c3c(-c4ccccc4)noc3C)o2)c(OC)c1 [Example 10, 2-(2,4-Dimethoxy-phenyl)-5-(5-methyl-3-phenyl-isoxazol-4-yl)-[1,3,4]oxadiazole]	31.7 nM
Cc1onc(-c2ccccc2)c1-c1nnc(-c2ccnc(Cl)c2)o1 [Example 54, 2-Chloro-4-[5-(5-methyl-3-phenyl-isoxazol-4-yl)-[1,3,4]oxadiazol-2-yl]-pyridine]	88.4 nM
Cc1onc(-c2ccccc2)c1-c1nnc(-c2ccc(OC(F)F)cc2)o1 [Example 52, 2-(4-Difluoromethoxy-phenyl)-5-(5-methyl-3-phenyl-isoxazol-4-yl)-[1,3,4]oxadiazole]	58.9 nM
Cc1onc(-c2ccccc2)c1-c1nnc(-c2ccc(F)cc2)o1 [Example 36, 2-(4-Fluoro-phenyl)-5-(5-methyl-3-phenyl-isoxazol-4-yl)-[1,3,4]oxadiazole]	134 nM
Cc1onc(-c2ccccc2)c1-c1nnc(-c2cccc3[nH]cnc23)o1 [Example 125, 4-[5-(5-Methyl-3-phenyl-isoxazol-4-yl)-[1,3,4]oxadiazol-2-yl]-1H-benzoimidazole]	26.8 nM
Cc1onc(-c2ccccc2)c1-c1nnc(-c2ccccc2N)o1 [Example 12, 2-[5-(5-Methyl-3-phenyl-isoxazol-4-yl)-[1,3,4]oxadiazol-2-yl]-phenylamine]	106 nM

These reach a lower Ki. Values come first.

Ki	Compound
15.5 nM	COc1cc(N2CCN(C)CC2)ccc1-c1nnc(-c2c(-c3ccccc3)noc2C)o1 [Example 67, 1-{3-Methoxy-4-[5-(5-methyl-3-phenyl-isoxazol-4-yl)-[1,3,4]oxadiazol-2-yl]-phenyl}-4-methyl-piperazine]
4.8 nM	CCC(=O)Nc1ccc(-c2nnc(-c3c(-c4ccccc4)noc3C)o2)c(OC)c1 [Example 90, N-{3-Methoxy-4-[5-(5-methyl-3-phenyl-isoxazol-4-yl)-[1,3,4]oxadiazol-2-yl]-phenyl}-propionamide]
13.4 nM	COc1cc(N2CCNCC2)ccc1-c1nnc(-c2c(-c3ccccc3)noc2C)o1 [Example 66, 1-{3-Methoxy-4-[5-(5-methyl-3-phenyl-isoxazol-4-yl)-[1,3,4]oxadiazol-2-yl]-phenyl}-piperazine]
11.6 nM	COc1cc(NCC2CC2)ccc1-c1nnc(-c2c(-c3ccccc3)noc2C)o1 [Example 19, Cyclopropylmethyl-{3-methoxy-4-[5-(5-methyl-3-phenyl-isoxazol-4-yl)-[1,3,4]oxadiazol-2-yl]-phenyl}-amine]
20.5 nM	COc1cc(N)ccc1-c1nnc(-c2c(-c3ccccc3)noc2CCC2CC2)o1 [Example 20, 4-{5-[5-(2-Cyclopropyl-ethyl)-3-phenyl-isoxazol-4-yl]-[1,3,4]oxadiazol-2-yl}-3-methoxy-phenylamine]
7.9 nM	Cc1onc(-c2ccccc2)c1-c1nnc(-c2ccc3[nH]c(=O)[nH]c3c2)o1 [Example 34, 5-[5-(5-Methyl-3-phenyl-isoxazol-4-yl)-[1,3,4]oxadiazol-2-yl]-1,3-dihydro-benzoimidazol-2-one]
4.5 nM	COc1cc(N2CCSCC2)c(F)cc1-c1nnc(-c2c(-c3ccccc3)noc2C)o1 [Example 116, 4-{2-Fluoro-5-methoxy-4-[5-(5-methyl-3-phenyl-isoxazol-4-yl)-[1,3,4]oxadiazol-2-yl]-phenyl}-thiomorpholine]
4.8 nM	COc1cc(-n2ccnn2)ccc1-c1nnc(-c2c(-c3ccccc3)noc2C)o1 [Example 86, 2-(2-Methoxy-4-[1,2,3]triazol-1-yl-phenyl)-5-(5-methyl-3-phenyl-isoxazol-4-yl)-[1,3,4]oxadiazole]
13.5 nM	Cc1onc(-c2ccccc2)c1-c1nnc(-c2cc(F)c(N3CCS(=O)(=O)CC3)cc2F)o1 [Example 120, 4-{2,5-Difluoro-4-[5-(5-methyl-3-phenyl-isoxazol-4-yl)-[1,3,4]oxadiazol-2-yl]-phenyl}-thiomorpholine 1,1-dioxide]
19.7 nM	Cc1onc(-c2ccccc2)c1-c1nnc(-c2ccc(N3CCS(=O)(=O)CC3)cc2)o1 [Example 38, 4-{4-[5-(5-Methyl-3-phenyl-isoxazol-4-yl)-[1,3,4]oxadiazol-2-yl]-phenyl}-thiomorpholine 1,1-dioxide]
4.5 nM	COc1cc(NCCSC)c(F)cc1-c1nnc(-c2c(-c3ccccc3)noc2C)o1 [Example 126, {2-Fluoro-5-methoxy-4-[5-(5-methyl-3-phenyl-isoxazol-4-yl)-[1,3,4]oxadiazol-2-yl]-phenyl}-(2-methylsulfanyl-ethyl)-amine]
6 nM	COc1cc(N2CCOCC2)c(F)cc1-c1nnc(-c2c(-c3ccccc3)noc2C)o1 [Example 114, 4-{2-Fluoro-5-methoxy-4-[5-(5-methyl-3-phenyl-isoxazol-4-yl)-[1,3,4]oxadiazol-2-yl]-phenyl}-morpholine]
16.7 nM	Cc1onc(-c2ccccc2)c1-c1nnc(-c2ccc(N3CC[S+]([O-])CC3)cc2)o1 [Example 39, 4-{4-[5-(5-Methyl-3-phenyl-isoxazol-4-yl)-[1,3,4]oxadiazol-2-yl]-phenyl}-thiomorpholine 1-oxide]
8.6 nM	COc1cc(NCCN2CCCC2)c(F)cc1-c1nnc(-c2c(-c3ccccc3)noc2C)o1 [Example 132, {2-Fluoro-5-methoxy-4-[5-(5-methyl-3-phenyl-isoxazol-4-yl)-[1,3,4]oxadiazol-2-yl]-phenyl}-(2-pyrrolidin-1-yl-ethyl)-amine]
4.9 nM	CCNc1onc(-c2ccccc2)c1-c1nnc(-c2ccc(N3CCOCC3)cc2OC)o1 [Example 111, Ethyl-{4-[5-(2-methoxy-4-morpholin-4-yl-phenyl)-[1,3,4]oxadiazol-2-yl]-3-phenyl-isoxazol-5-yl}-amine]
19.5 nM	COc1cc(N2CCOCC2)ccc1-c1nnc(-c2c(-c3cccs3)noc2C)o1 [Example 110, 4-{3-Methoxy-4-[5-(5-methyl-3-thiophen-2-yl-isoxazol-4-yl)-[1,3,4]oxadiazol-2-yl]-phenyl}-morpholine]
11.3 nM	COc1cc(N2CCOCC2)ccc1-c1nnc(-c2c(-c3cccc(F)c3)noc2C)o1 [Example 108, 4-(4-{5-[3-(3-Fluoro-phenyl)-5-methyl-isoxazol-4-yl]-[1,3,4]oxadiazol-2-yl}-3-methoxy-phenyl)-morpholine]
